Earlier results as cited in patent US9694080B2, “Polymer release system” (EGALET LTD., priority 2001, dated 2017).

| dose linearity range (literature) | absorption in the large intestine, share of the total absorption (timed-release capsules, Nolte et al) | SMILES | beta effect relative to S(−) (β1 and β2) | α effect relative to S(−) (α-adrenoceptor) |
| --- | --- | --- | --- | --- |
| 6.25 to 50 mg | approximately 10% | COc1ccccc1OCCNCC(O)COc1cccc2[nH]c3ccccc3c12 (stereo not shown) [Carvedilol] | – | – |
| – | – | COc1ccccc1OCCNC[C@@H](O)COc1cccc2[nH]c3ccccc3c12 [R(+)] | 1/100 | the same α effect |
